Here are results for four compounds from patent US4143032A, “Hexapeptides having analgesic activities” (American Home Products Corporation, priority 1977, dated 1979).

Non-standard residues stand in square brackets, D forms with d. Residues, ends and D or L forms follow the SMILES beside them.

For assay [1] the following is noted: administered intracerebroventricularly; cited from earlier work.
A further assay has as its system mouse vas deferens. The following applies: cited from earlier work.
The next assay relates to guinea pig ileum. Particulars: cited from earlier work.
Assay [2] relates to rats. The following applies: injection in the brain ventricle in rats; fully reversible by naloxone; cited from earlier work.
For assay [3] the following is noted: peripheral administration, for example intravenous; cited from earlier work.
The test system of the next assay is opiate receptor. The following applies: brain homogenates; cited from earlier work.
Assay [4] deals with rats. Kind of assay: rat-tail flick method of D'Amour and Smith (analgesic activity). The assay is classed as in vivo. The following applies: single dose. The procedure: In this procedure, a single intravenous dose of from 0.5 to 20 mg/kg., will produce analgesia in the rat. Preferably, a dose of from 1 to 10 mg/kg. is employed. The exact dose to be employed will vary depending on the particular compound employed and the degree of analgesia desired. The determination of the precise dose to produce the desired effect will be readily ascertained by those skilled in the art. With representative compound H-Arg-Tyr-D-Ala-Gly-Phe-D-Leu-NH2, the following results were obtained: […]
A general note: In hot-plate and tail-flick tests a longer latency is read as antinociception.

Turning to Tyr-D-Ala-Gly-Phe-D-Leu, in assay [1], the activity entry was “activity”.

For the compound “H-Tyr-Gly-Gly-Phe-Met-OH [methionine-enkephalin]”, the “ability to block electrically evoked contractions” value in the assay with mouse vas deferens and in the assay with guinea pig ileum was “block electrically evoked contractions” in each case. Also, the analgesia entry with rats [2] is recorded as “induce a profound analgesia”. The peripheral activity entry in assay [3] was “inactive peripherally”. Besides, the “inhibition of stereospecific receptor binding of 3H-naloxone” value in the assay with opiate receptor was “inhibit the stereospecific receptor binding”.

“H-Tyr-Gly-Gly-Phe-Leu-OH [leucine-enkephalin]”: the “ability to block electrically evoked contractions” value with mouse vas deferens and in the assay with guinea pig ileum was “block electrically evoked contractions” throughout. The analgesia result in the assay on rats [2] is recorded as “induce a profound analgesia”. Besides, the peripheral activity entry in assay [3] is “inactive peripherally”. In the assay on opiate receptor, the “inhibition of stereospecific receptor binding of 3H-naloxone” value is “inhibit the stereospecific receptor binding”.

For the compound `CC(=O)O.CC(=O)O.CC(C)C[C@@H](NC(=O)[C@H](Cc1ccccc1)NC(=O)CNC(=O)[C@@H](C)NC(=O)[C@H](Cc1ccc(O)cc1)NC(=O)[C@@H](N)CCCNC(=N)N)C(N)=O` [H-Arg-Tyr-D-Ala-Gly-Phe-D-Leu-NH2, L-Arginyl-L-Tyrosyl-D-Alanyl-Glycyl-L-Phenylalanyl-D-Leucyl Amide Diacetate] (H-RY[dA]GF[dL]-NH2), the “No. Showing Analgesic/No. Tested” value in the assay on rats [4] (1.0 mg/kg. i.v.) is listed as 2/6; with rats [4] (2.5 mg/kg. i.v.) it was 2/6; with rats [4] (5 mg/kg. i.v.) it was 6/6.
